Data reported in EPA's ToxRefDB 2.

Columns and labels:
mouse [1] = conditions: Combined chronic toxicity/carcinogenicity, b6c3f1, Oral, Gavage/Intubation, dose end: 104 week, group: systemic
mouse [2] = conditions: Subchronic oral toxicity in rodents, b6c3f1, Gavage/Intubation, dose end: 14 week, group: systemic
rat [3] = conditions: Combined chronic toxicity/carcinogenicity, fischer, Oral, Gavage/Intubation, dose end: 104 week, group: systemic
rat [4] = conditions: Subchronic oral toxicity in rodents, fischer, Gavage/Intubation, dose end: 14 week, group: systemic
dog = conditions: Chronic toxicity; beagle; Oral; Feed; dose end: 6 month; group: systemic; systemic / clinical chemistry / cholesterol / cholesterol + systemic / organ weight / liver / absolute + systemic / organ weight / liver / …
rat [5] = conditions: Prenatal developmental toxicity study, sprague dawley, Oral, Gavage/Intubation, dose end: 15 GD
rabbit = conditions: Prenatal developmental toxicity study, new zealand white, Oral, Gavage/Intubation, dose end: 19 GD
mouse [6] = conditions: Carcinogenicity, cd1, Oral, Feed, dose end: 104 week, group: systemic
mouse [7] = conditions: Combined chronic toxicity/carcinogenicity, cd1, Oral, Feed, dose end: 104 week, group: systemic
rat [8] = conditions: Multigenerational reproductive toxicity study, wistar, Oral, Feed, dose end: 2 generation
[9] = systemic / pathology microscopic / salivary glands / cytoplasmic alteration
[10] = systemic / pathology microscopic / salivary glands / cytoplasmic alteration + systemic / pathology microscopic / liver / carcinoma
[11] = systemic / pathology microscopic / adrenal gland / atrophy + systemic / pathology microscopic / adrenal gland / vacuolization + systemic / …
[12] = systemic / pathology microscopic / liver / basophilic focus
[13] = systemic / pathology microscopic / pancreas / atrophy + systemic / pathology microscopic / pancreas / hyperplasia + systemic / pathology …
[14] = systemic / in life observation / body weight / body weight + systemic / in life observation / body weight / body weight gain
[15] = systemic / in life observation / body weight / body weight + systemic / in life observation / body weight / body weight gain + systemic / …
[16] = group: developmental, developmental / developmental malformation / bone / bipartite ossification + developmental / developmental malformation / bone / short …
[17] = group: maternal, systemic / in life observation / body weight / body weight gain
[18] = group: maternal, systemic / in life observation / body weight / body weight gain + systemic / in life observation / food consumption / food consumption
[19] = group: developmental, developmental / developmental malformation / bone / incomplete ossification + developmental / developmental malformation / bone / …
[20] = group: developmental, developmental / developmental malformation / bone / unossified
[21] = group: maternal, reproductive / reproductive performance / aborted / aborted + systemic / in life observation / body weight / body weight gain
[22] = systemic / organ weight / liver / absolute + systemic / organ weight / liver / relative to body weight + systemic / pathology gross / spleen…
[23] = systemic / pathology microscopic / liver / [other]
[24] = systemic / organ weight / liver / absolute + systemic / pathology gross / spleen / enlarged + systemic / pathology microscopic / kidney / …
[25] = group: offspring, systemic / in life observation / body weight / offspring (pup) weight gain + systemic / organ weight / liver / relative to body weight
[26] = group: offspring, systemic / in life observation / body weight / offspring (pup) weight gain + systemic / organ weight / liver / relative to body weight + …
[27] = group: parental, systemic / organ weight / kidney / absolute + systemic / organ weight / kidney / relative to body weight + systemic / organ weight / liver…
[28] = group: reproductive, reproductive / reproductive performance / precoital interval / precoital interval

C[C@]12CCC(=O)C=C1CC[C@@H]1[C@@H]2CC[C@]2(C)C(=O)CC[C@@H]12 [4-Androstene-3,17-dione]
LOAEL (mouse [1]; [9]): 2 mg/kg/day
NOAEL (mouse [1]; [9]): < 2 mg/kg/day
LEL (mouse [1]; [10]): 2 mg/kg/day
NEL (mouse [1]; [10]): < 2 mg/kg/day
LEL (mouse [2]; systemic / pathology microscopic / adrenal gland / atrophy): 5 mg/kg/day
NEL (mouse [2]; systemic / pathology microscopic / adrenal gland / atrophy + systemic / pathology microscopic / adrenal gland / vacuolization): 1 mg/kg/day
LOAEL (mouse [2]; [11]): > 50 mg/kg/day
NOAEL (mouse [2]; [11]): ≥ 50 mg/kg/day
LEL (rat [3]; [12]): 10 mg/kg/day
NEL (rat [3]; [12]): < 10 mg/kg/day
LOAEL (rat [3]; [13]): 50 mg/kg/day
NOAEL (rat [3]; [13]): 20 mg/kg/day
LEL (rat [4]; [14]): 1 mg/kg/day
NEL (rat [4]; [14]): < 1 mg/kg/day
LOAEL (rat [4]; [15]): > 50 mg/kg/day
NOAEL (rat [4]; [15]): ≥ 50 mg/kg/day

CNc1cnn(-c2cccc(C(F)(F)F)c2)c(=O)c1Cl [Norflurazon]
LEL (dog): 4.77 mg/kg/day
LOAEL (dog): 4.77 mg/kg/day
NEL (dog): 1.58 mg/kg/day
NOAEL (dog): 1.58 mg/kg/day
LEL (rat [5]; [16]): 400 mg/kg/day
LOAEL (rat [5]; [16]): > 400 mg/kg/day
NEL (rat [5]; [16]): 200 mg/kg/day
NOAEL (rat [5]; [16]): ≥ 400 mg/kg/day
LOAEL (rat [5]; [17]): 100 mg/kg/day
NOAEL (rat [5]; [17]): < 100 mg/kg/day
LEL (rat [5]; [18]): 100 mg/kg/day
NEL (rat [5]; [18]): < 100 mg/kg/day
LOAEL (rabbit; [19]): 30 mg/kg/day
NOAEL (rabbit; [19]): 10 mg/kg/day
LEL (rabbit; [20]): 10 mg/kg/day
NEL (rabbit; [20]): < 10 mg/kg/day
LEL (rabbit; [21]): 60 mg/kg/day
LOAEL (rabbit; [21]): 60 mg/kg/day
NEL (rabbit; [21]): 30 mg/kg/day
NOAEL (rabbit; [21]): 30 mg/kg/day
LOAEL (mouse [6]; [22]): 58.7 mg/kg/day
NOAEL (mouse [6]; [22]): 12.8 mg/kg/day
LEL (mouse [6]; [23]): 12.8 mg/kg/day
NEL (mouse [6]; [23]): < 12.8 mg/kg/day
NEL (mouse [7]; systemic / organ weight / liver / absolute + systemic / organ weight / liver / relative to body weight + systemic / pathology gross / liver…): 12.8 mg/kg/day
LEL (mouse [7]; [24]): 58.7 mg/kg/day
LOAEL (mouse [7]; [24]): 58.7 mg/kg/day
NOAEL (mouse [7]; [24]): 12.8 mg/kg/day
LEL (rat [8]; [25]): 67.8 mg/kg/day
LOAEL (rat [8]; [25]): 67.8 mg/kg/day
NEL (rat [8]; [26]): 13.2 mg/kg/day
NOAEL (rat [8]; [26]): 13.2 mg/kg/day
LEL (rat [8]; [27]): 50.8 mg/kg/day
LOAEL (rat [8]; [27]): 50.8 mg/kg/day
NEL (rat [8]; [27]): 10.2 mg/kg/day
NOAEL (rat [8]; [27]): 10.2 mg/kg/day
LEL (rat [8]; [28]): 102 mg/kg/day
LOAEL (rat [8]; [28]): 102 mg/kg/day
NEL (rat [8]; [28]): 50.8 mg/kg/day
NOAEL (rat [8]; [28]): 50.8 mg/kg/day
